{"source": "paper PMC12505902", "about": "“Inhibitors of trehalose-6-phosphate synthase activity in fungal pathogens compromise thermal tolerance pathways” (mBio, 2025)", "key": {"C. glabrata (CBS138)": {"tested_on": "C. glabrata (CBS138)", "assay": "MIC dose-response assay in YPD", "type": "cell-based", "protocol": "Fig 4 4456dh inhibits the growth of Candida and Cryptococcus species. […] 4456dh was administered at the concentrations indicated. Cultures were grown in YPD at the listed temperatures for 48 hours for Candida species and 72 hours for Cryptococcus species. Experimental temperatures reflect the temperatures at which the fungi experience heat stress. Left: relative growth of treated samples was calculated by averaging technical triplicates and normalizing the OD600 of each treated well to the average OD600 of the untreated WT controls, after the absorbance due to the compound was subtracted. The MIC80 values, calculated based on the OD600 values, are indicated in the white text on each heat map. Right: representative spot assays show the ability of cells to grow after exposure to 4456dh and indicate fungicidal activity of 4456dh. […]\nFurthermore, there was significant fungicidal activity of 4456dh on C. glabrata in concentrations starting at approximately 7.8 µM (Fig. 4B).\n77 and 5 mM imidazole. The protein was eluted with increasing amounts of imidazole in the wash\n78 buffer. The fractions containing 6xHis-CnTps1 were pooled, reduced to 5 mL and purified further\n79 using S200 size exclusion column chromatography (HiLoad 26/600 Superdex 200pg, Cytiva) […]\n82 determined by SDS-PAGE analysis, were pooled and concentrated to 1 mg/mL for downstream […]\n93 The data were acquired with MO.Control 1.5.3 (NanoTemper Technologies GmbH). Recorded\n94 data were analyzed with MO.Affinity Analysis 2.2.7 (NanoTemper Technologies GmbH). […]\n100 2X Glo-melt dye. Thermal denaturation was measured using an RT-PCR thermocycler (BioRad) […]\n102 determined by identifying the inflection point of the derivative data. […]\n104 The catalytic activity of C. albicans Tps1 and C. neoformans Tps1 was measured via a continuous […]\n110 bottomed 96-well microtiter plates and the decrease in absorbance at 340 nm during the initial\n111 reaction rate was recorded using a plate reader (Tecan). The decrease in absorbance was\n112 analyzed for the first 200s of the kinetic reaction. […]"}, "[1]": {"tested_on": "C. albicans WT strain SC5314", "assay": "C. albicans filamentation assay (serum-induced)", "type": "cell-based", "settings": "YPD plus 10% fetal bovine serum, 37°C, 2 hours; sub-MIC concentration (5 µM as printed)"}}, "note": "Like-named read-outs stand apart in the source and are kept apart here.", "data": [{"compound": "Cn1cc(-c2csc(NC(=O)Cc3ccccn3)n2)cn1", "note": "[Compound 4456dh]", "values": [{"measurement": "MIC80", "setting": "C. glabrata (CBS138); 30°C, YPD", "value": "no MIC or fungicidal activity was detected"}, {"measurement": "MIC80", "setting": "C. glabrata (CBS138); Nakaseomyces glabratus, CBS138, 42°C, YPD, 48 hours, read-out: MIC80", "value": 7.8, "unit": "µM"}, {"measurement": "MIC80", "setting": "C. glabrata (CBS138); Nakaseomyces glabratus, CBS138, Supplemental Table 5, This publication, read-out: MIC80", "value": 3.1, "unit": "µg/mL"}, {"measurement": "filamentation", "setting": "[1]", "value": "complete inhibition of filamentation"}]}]}
